Assay results taken from patent US20130303532A1, “IMIDAZOPYRAZINES FOR USE AS MPS-1 AND TKK INHIBITORS IN THE TREATMENT HYPERPROLIFERATIVE DISORDERS” (BAYER INTELLECTUAL PROPERTY GmbH, priority 2010, published 2013).
Like-named read-outs stand apart in the source and are kept apart here.

Target: T1, human kinase Mps-1 (Homo sapiens, UniProt P33981)
T1 construct: N-terminally GST-tagged human full length recombinant Mps-1 kinase; GST (N); purchased Invitrogen, Karslruhe, Germany PV4071
T1 sequence (P33981 1-857): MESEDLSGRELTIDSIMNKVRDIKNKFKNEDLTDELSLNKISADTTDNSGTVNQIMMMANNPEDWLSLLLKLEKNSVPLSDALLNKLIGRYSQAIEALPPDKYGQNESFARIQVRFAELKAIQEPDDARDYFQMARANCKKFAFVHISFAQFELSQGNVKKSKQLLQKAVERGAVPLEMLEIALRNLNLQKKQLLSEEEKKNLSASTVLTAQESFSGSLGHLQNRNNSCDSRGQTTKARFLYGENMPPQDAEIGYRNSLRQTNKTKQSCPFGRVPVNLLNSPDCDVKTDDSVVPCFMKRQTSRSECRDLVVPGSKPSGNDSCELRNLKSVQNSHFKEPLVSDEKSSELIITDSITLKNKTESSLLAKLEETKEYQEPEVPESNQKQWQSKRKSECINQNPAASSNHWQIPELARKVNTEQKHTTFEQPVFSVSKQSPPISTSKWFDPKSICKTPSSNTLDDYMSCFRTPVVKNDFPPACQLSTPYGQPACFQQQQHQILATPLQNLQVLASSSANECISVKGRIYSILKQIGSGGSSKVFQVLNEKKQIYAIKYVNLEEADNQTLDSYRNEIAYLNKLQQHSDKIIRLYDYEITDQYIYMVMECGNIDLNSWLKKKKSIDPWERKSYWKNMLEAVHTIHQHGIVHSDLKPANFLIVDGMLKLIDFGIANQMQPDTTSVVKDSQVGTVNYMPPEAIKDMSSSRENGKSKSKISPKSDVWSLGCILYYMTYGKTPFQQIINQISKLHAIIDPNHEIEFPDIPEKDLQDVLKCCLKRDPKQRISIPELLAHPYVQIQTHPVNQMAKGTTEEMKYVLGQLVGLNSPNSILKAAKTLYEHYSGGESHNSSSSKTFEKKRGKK
Test: Mps-1 kinase assay (TR-FRET)
Type: biochemical
Conditions: N-terminally GST-tagged human full length recombinant Mps-1, 10 μM ATP, 1 μM biotinylated peptide substrate, 60 min at 22° C.

IC50 (read-out: Mps1 IC50) [nM]	Compound	IC50 (Mps1 IC50 [nM]) [nM]
–	Cc1ccccc1CNc1nccn2c(-c3ccc(C(=O)NC4CC4)cc3)cnc12 [Example 7-15, N-cyclopropyl-4-{8-[(2-methylbenzyl)amino]imi-dazo[1,2-a]pyrazin-3-yl}benzamide]	88.8
961	CC(=O)NCCNc1nccn2c(-c3ccc(C(=O)NC4CC4)cc3)cnc12 [Example 7-16, 4-(8-{[2-(acetylamino)ethyl]ami-no}imidazo[1,2-a]pyrazin-3-yl)-N-cyclopropylbenzamide]	–
–	O=C(NC1CC1)c1ccc(-c2cnc3c(NCC(O)COc4ccccc4)nccn23)cc1 (stereo not shown) [Example 7-17, N-cyclopropyl-4-{8-[(2-hydroxy-3-phenoxypropyl)amino]imi-dazo[1,2-a]pyrazin-3-yl}benzamide]	412
28.4	O=C(NC1CC1)c1ccc(-c2cnc3c(NCc4ccc5c(c4)OCO5)nccn23)cc1 [Example 7-18, 4-{8-[(1,3-benzodioxol-5-ylmethyl)amino]imidazo[1,2-a]pyrazin-3-yl}-N-cyclopropylbenzamide]	–
–	CC(C)(C)CNc1nccn2c(-c3ccc(C(=O)NC4CC4)cc3)cnc12 [Example 7-20, N-cyclopropyl-4-{8-[(2,2-dimethylpropyl)amino]imi-dazo[1,2-a]pyrazin-3-yl}benzamide]	30.2
42.3	O=C(NC1CC1)c1ccc(-c2cnc3c(NCCc4cccs4)nccn23)cc1 [Example 7-21, N-cyclopropyl-4-(8-{[2-(thiophen-2-yl)ethyl]ami-no}imidazo[1,2-a]pyrazin-3-yl)benzamide]	–
–	Cc1ccc(CNc2nccn3c(-c4ccc(C(=O)NC5CC5)cc4)cnc23)cc1 [Example 7-22, N-cyclopropyl-4-{8-[(4-methylbenzyl)amino]imi-dazo[1,2-a]pyrazin-3-yl}benzamide]	21
244	O=C(NC1CC1)c1ccc(-c2cnc3c(NCCc4cccnc4)nccn23)cc1 [Example 7-23, N-cyclopropyl-4-(8-{[2-(pyridin-3-yl)ethyl]amino}imidazo[1,2-a]pyrazin-3-yl)benzamide]	–
–	O=C(NC1CC1)c1ccc(-c2cnc3c(NCCCc4ccccc4)nccn23)cc1 [Example 7-24, N-cyclopropyl-4-{8-[(3-phenylpropyl)amino]imi-dazo[1,2-a]pyrazin-3-yl}benzamide]	90.1
97.6	NS(=O)(=O)c1ccc(CCNc2nccn3c(-c4ccc(C(=O)NC5CC5)cc4)cnc23)cc1 [Example 7-27, N-cyclopropyl-4-(8-{[2-(4-sulfamoylphenyl)ethyl]ami-no}imidazo[1,2-a]pyrazin-3-yl)benzamide]	–
–	O=C(NC1CC1)c1ccc(-c2cnc3c(NCCCN4CCCC4=O)nccn23)cc1 [Example 7-28, N-cyclopropyl-4-(8-{[3-(2-oxopyrrolidin-1-yl)propyl]amino}imi-dazo[1,2-a]pyrazin-3-yl)benzamide]	1270
–	Cc1cccc(CNc2nccn3c(-c4ccc(C(=O)NC5CC5)cc4)cnc23)c1 [Example 7-29, N-cyclopropyl-4-{8-[(3-methylbenzyl)amino]imi-dazo[1,2-a]pyrazin-3-yl}benzamide]	100
–	O=C(NC1CC1)c1ccc(-c2cnc3c(NCc4ccc(F)cc4)nccn23)cc1 [Example 7-31, N-cyclopropyl-4-{8-[(4-fluorobenzyl)amino]imi-dazo[1,2-a]pyrazin-3-yl}benzamide]	17.4
–	NS(=O)(=O)CCNc1nccn2c(-c3ccc(C(=O)NC4CC4)cc3)cnc12 [Example 7-32, N-cyclopropyl-4-{8-[(2-sulfamoylethyl)amino]imi-dazo[1,2-a]pyrazin-3-yl}benzamide]	57.2
–	O=C(NC1CC1)c1ccc(-c2cnc3c(NCc4cccc(F)c4)nccn23)cc1Cl [Example 7-33, 2-chloro-N-cyclopropyl-4-{8-[(3-fluorobenzyl)amino]imi-dazo[1,2-a]pyrazin-3-yl}benzamide]	200
211	O=C(NC1CC1)c1ccc(-c2cnc3c(NCC4CCCO4)nccn23)cc1Cl (stereo not shown) [Example 7-34, 2-chloro-N-cyclopropyl-4-{8-[(tetrahydrofuran-2-ylmethyl)amino]imidazo[1,2-a]pyrazin-3-yl}benzamide]	–
1970	O=C(NC1CC1)c1ccc(-c2cnc3c(NCCCN4CCCC4=O)nccn23)cc1Cl [Example 7-35, 2-chloro-N-cyclopropyl-4-(8-{[3-(2-oxopyrrolidin-1-yl)propyl]amino}imidazo[1,2-a]pyrazin-3-yl)benzamide]	–

IC50 (read-out: Mps1 IC50) [nM]	Compound	IC50 (Mps1 IC50 [nM]) [nM]
–	COCCNc1nccn2c(-c3ccc(C(=O)NC4CC4)c(Cl)c3)cnc12 [Example 7-36, 2-chloro-N-cyclopropyl-4-{8-[(2-methoxyethyl)amino]imi-dazo[1,2-a]pyrazin-3-yl}benzamide]	593
–	O=C(NC1CC1)c1ccc(-c2cnc3c(NCc4ccccc4F)nccn23)cc1Cl [Example 7-37, 2-chloro-N-cyclopropyl-4-{8-[(2-fluorobenzyl)amino]imi-dazo[1,2-a]pyrazin-3-yl}benzamide]	93.8
–	O=C(NC1CC1)c1ccc(-c2cnc3c(NCc4ccc(F)cc4)nccn23)cc1Cl [Example 7-38, 2-chloro-N-cyclopropyl-4-{8-[(4-fluorobenzyl)amino]imi-dazo[1,2-a]pyrazin-3-yl}benzamide]	112
–	O=C(NC1CC1)c1ccc(-c2cnc3c(NCCCCO)nccn23)cc1Cl [Example 7-39, 2-chloro-N-cyclopropyl-4-{8-[(4-hydroxybutyl)amino]imi-dazo[1,2-a]pyrazin-3-yl}benzamide]	239
64.6	O=C(NC1CC1)c1ccc(-c2cnc3c(NCc4ccccc4)nccn23)cc1Cl [Example 7-40, 4-[8-(benzylamino)imidazo[1,2-a]pyrazin-3-yl]-2-chloro-N-cyclopropylbenzamide]	–
17000	CCNc1nccn2c(-c3ccc(C(=O)NC4CC4)c(Cl)c3)cnc12 [Example 7-42, 2-chloro-N-cyclopropyl-4-[8-(ethylamino)imidazo[1,2-a]pyrazin-3-yl]benzamide]	–
–	O=C(NC1CC1)c1ccc(-c2cnc3c(NCCCO)nccn23)cc1Cl [Example 7-43, 2-chloro-N-cyclopropyl-4-{8-[(3-hydroxypropyl)amino]imi-dazo[1,2-a]pyrazin-3-yl}benzamide]	430
54.2	CCCCNc1nccn2c(-c3ccc(C(=O)NC4CC4)c(Cl)c3)cnc12 [Example 7-44, 4-[8-(butylamino)imidazo[1,2-a]pyrazin-3-yl]-2-chloro-N-cyclopropylbenzamide]	–
1750	CC(=O)NCCNc1nccn2c(-c3ccc(C(=O)NC4CC4)c(Cl)c3)cnc12 [Example 7-45, 4-(8-{[2-(acetylamino)ethyl]ami-no)imidazo[1,2-a]pyrazin-3-yl)-2-chloro-N-cyclopropylbenzamide]	–
73.1	O=C(NC1CC1)c1ccc(-c2cnc3c(NCC4CC4)nccn23)cc1Cl [Example 7-46, 2-chloro-N-cyclopropyl-4-{8-[(cyclopropylmethyl)ami-no]imidazo[1,2-a]pyrazin-3-yl}benzamide]	–
1190	O=C(NC1CC1)c1ccc(-c2cnc3c(NCc4ccccn4)nccn23)cc1Cl [Example 7-47, 2-chloro-N-cyclopropyl-4-{8-[(pyridin-2-ylmethyl)amino]imidazo[1,2-a]pyrazin-3-yl}benzamide]	–
513	O=C(NC1CC1)c1ccc(-c2cnc3c(NCc4cccnc4)nccn23)cc1Cl [Example 7-48, 2-chloro-N-cyclopropyl-4-{8-[(pyridin-3-ylmethyl)amino]imidazo[1,2-a]pyrazin-3-yl}benzamide]	–
387	O=C(NC1CC1)c1ccc(-c2cnc3c(NCc4ccncc4)nccn23)cc1Cl [Example 7-49, 2-chloro-N-cyclopropyl-4-{8-[(pyridin-4-ylmethyl)amino]imidazo[1,2-a]pyrazin-3-yl}benzamide]	–
–	O=C(NC1CC1)c1ccc(-c2cnc3c(NCc4ccco4)nccn23)cc1Cl [Example 7-50, 2-chloro-N-cyclopropyl-4-{8-[(furan-2-ylmethyl)amino]imi-dazo[1,2-a]pyrazin-3-yl}benzamide]	209
–	CC(C)CNc1nccn2c(-c3ccc(C(=O)NC4CC4)c(Cl)c3)cnc12 [Example 7-51, 2-chloro-N-cyclopropyl-4-{8-[(2-methylpropyl)amino]imi-dazo[1,2-a]pyrazin-3-yl}benzamide]	15.7
–	N#CCCNc1nccn2c(-c3ccc(C(=O)NC4CC4)c(Cl)c3)cnc12 [Example 7-52, 2-chloro-4-{8-[(2-cyanoethyl)amino]imi-dazo[1,2-a]pyrazin-3-yl}-N-cyclopropylbenzamide]	272
–	O=C(NC1CC1)c1ccc(-c2cnc3c(NCC(F)(F)C(F)(F)F)nccn23)cc1Cl [Example 7-53, 2-chloro-N-cyclopropyl-4-{8-[(2,2,3,3,3-pentafluoropropyl)amino]imi-dazo[1,2-a]pyrazin-3-yl}benzamide]	106
